From US20090036422A1 (priority 2007, published 2009)

These compounds were tested against T1, human orexin-2 (hOX2) receptor (Homo sapiens, UniProt O43614) (assay: Intracellular Ca2+ mobilization assay (FLIPR), CHO(dHFr-) cells expressing hOX2, orexin-A at EC80 as agonist). Settings: Kb=IC50/(1+[A]/EC50); CHO(dHFr-)-OX2R cells, antagonist applied 25 min before orexin-A EC80.
T1 construct: expressed in transfected cells
T1 sequence (O43614 1-444): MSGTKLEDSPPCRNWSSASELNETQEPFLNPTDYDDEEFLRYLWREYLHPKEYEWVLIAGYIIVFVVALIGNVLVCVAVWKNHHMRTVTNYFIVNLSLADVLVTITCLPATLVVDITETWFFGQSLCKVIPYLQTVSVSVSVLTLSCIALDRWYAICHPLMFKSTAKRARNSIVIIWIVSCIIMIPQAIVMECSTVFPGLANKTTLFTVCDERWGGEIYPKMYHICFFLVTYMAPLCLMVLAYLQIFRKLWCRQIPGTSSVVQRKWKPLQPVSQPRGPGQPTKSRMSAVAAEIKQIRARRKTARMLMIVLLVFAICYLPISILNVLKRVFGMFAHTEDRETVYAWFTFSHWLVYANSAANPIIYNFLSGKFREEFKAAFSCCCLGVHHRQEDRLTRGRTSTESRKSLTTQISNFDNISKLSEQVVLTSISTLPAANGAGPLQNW
Format: cell-based
Procedure: Intracellular Ca^2+ Mobilization Assay
The Chinese Hamster Ovary (dHFr−) mutant cell line stably expressing human orexin-1 (hOX1) or human orexin-2 (hOX2) receptors were maintained in Dulbecco's Modified Eagle Medium (1×) with GlutaMax™ 1, 4500 mg/L D-Glucose and Sodium Pyruvate (Catalog No. 31966-021, Invitrogen, Carlsbad, Calif.), 5% dialyzed fetal calf serum (Catalog No. 26400-044), 100 μg/ml penicillin and 100 μg/ml streptomycin. The cells were seeded at 5×10^4 cells/well in the poly-D-lysine treated, 96-well, black/clear-bottomed plates (Catalog No. BD356640, BD Biosciences, Palo Alto, Calif.). 24 h later, the cells were loaded for 1 h at 37° C. with 4 μM Flou-4 acetoxymethyl ester (Catalog No. F-14202, Molecular Probes, Eugene, Oreg.) in FLIPR buffer (1×HBSS, 20 mM HEPES, 2.5 mM Probenecid). Hanks' Balanced Salt Solution (HBSS) (10×) (catalog No. 14065-049) and HEPES (1M) (catalog No. 15630-056) were purchased from Invitrogen, Carlsbad, Calif. Probenecid (250 mM) (catalog No. P8761) was from Sigma, Buchs, Switzerland. The cells were washed five times with FLIPR buffer to remove excess dye and intracellular calcium mobilization, [Ca^2+]i were measured using a Fluorometric Imaging Plate Reader (FLIPR-96, Molecular Devices, Menlo Park, Calif.) as described previously (Malherbe et al., Mol. Pharmacol., 64, 823-832, 2003). Orexin A (catalog No. 1455, Toris Cookson Ltd, Bristol, UK) was used as agonist. Orexin A (50 mM stock solution in DMSO) was diluted in FLIPR buffer +0.1% BSA. The EC50 and EC80 values of orexin-A were measured daily from standard agonist concentration-response curves in CHO(dHFr−) —OX1R and —OX2R cell lines. All compounds were dissolved in 100% DMSO. Inhibition curves were determined by addition of 11 concentrations (0.0001-10 μM) of inhibitory compounds and using EC80 value of orexin-A as agonist (a concentration which gave 80% of max agonist response, determined daily). The antagonists were applied 25 min (incubation at 37° C.) before the application of the agonist. Responses were measured as peak increase in fluorescence minus basal, normalized to the maximal stimulatory effect induced by EC80 value of orexin-A or orexin-B. Inhibition curves were fitted according to the Hill equation: y=100/(1+(x/IC50)^nH), where nH=slope factor using Excel-fit 4 software (Microsoft).
Kb values were calculated according to the following equation Kb=IC50/(1+[A]/EC50) where A is the concentration of agonist added which is very close to agonist EC80 value, and IC50 and EC50 values were derived from the antagonist inhibition and orexin-A or B agonist curves, respectively.

Row | Structure (SMILES) | Kb [µM]
1 | COc1ccccc1CC(=O)N(CCc1ccc(C(F)(F)F)cc1)c1ccc(OC)c(OC)c1 [Example 14, N-(3,4-dimethoxyphenyl)-2-(2-methoxyphenyl)-N-{2-[4-(trifluoromethyl)phenyl]ethyl}acetamide] | 0.0342
2 | COc1ccc(N(CCc2ccc(C(F)(F)F)cc2)C(=O)C(O)c2ccccc2OC)cc1OC (centres unmarked) [Example 17, N-(3,4-dimethoxyphenyl)-2-hydroxy-2-(2-methoxyphenyl)-N-{2-[4-(trifluoromethyl)phenyl]ethyl}acetamide] | 0.0165
3 | COc1ccc(N(CCc2ccc(C(F)(F)F)cc2)C(=O)[C@@H](O)c2ccccc2)cc1OC [Example 23, (2S)-N-(3,4-dimethoxyphenyl)-2-hydroxy-2-phenyl-N-{2-[4-(trifluoromethyl)phenyl]ethyl}acetamide] | 0.0226
4 | COc1ccc(N(CCc2ccc(C(F)(F)F)cc2)C(=O)C(O)c2ccc(F)cc2)cc1OC (centres unmarked) [Example 26, N-(3,4-dimethoxyphenyl)-2-(4-fluorophenyl)-2-hydroxy-N-{2-[4-(trifluoromethyl)phenyl]ethyl}acetamide] | 0.0592
5 | COc1ccc(C(O)C(=O)N(CCc2ccc(C(F)(F)F)cc2)c2ccc(OC)c(OC)c2)cc1O (centres unmarked) [Example 27, N-(3,4-dimethoxyphenyl)-2-hydroxy-2-(3-hydroxy-4-methoxyphenyl)-N-{2-[4-(trifluoromethyl)phenyl]ethyl}acetamide] | 0.0737
6 | COc1ccc(N(CCc2ccc(C(F)(F)F)cc2)C(=O)C(O)c2ccc(Cl)cc2)cc1OC (centres unmarked) [Example 30, 2-(4-chlorophenyl)-N-(3,4-dimethoxyphenyl)-2-hydroxy-N-{2-[4-(trifluoromethyl)phenyl]ethyl}acetamide] | 0.0757
7 | COc1ccc(N(CCc2ccc(C(F)(F)F)cc2)C(=O)C(O)c2ccccc2F)cc1OC (centres unmarked) [Example 31, N-(3,4-dimethoxyphenyl)-2-(2-fluorophenyl)-2-hydroxy-N-{2-[4-(trifluoromethyl)phenyl]ethyl}acetamide] | 0.0336
8 | CNC(C(=O)N(CCc1ccc(C(F)(F)F)cc1)c1ccc(OC)c(OC)c1)c1ccccc1OC (centres unmarked) [Example 34, N-(3,4-Dimethoxy-phenyl)-2-(2-methoxy-phenyl)-2-methylamino-N-[2-(4-trifluoromethyl-phenyl)-ethyl]-acetamide] | 0.027
9 | COc1ccc(N(CCc2ccc(C(F)(F)F)cc2)C(=O)C(N)c2ccccc2OC)cc1OC (centres unmarked) [Example 35, 2-Amino-N-(3,4-dimethoxy-phenyl)-2-(2-methoxy-phenyl)-N-[2-(4-trifluoromethyl-phenyl)-ethyl]-acetamide] | 0.0088
10 | COc1cccc(N(CCc2ccc(C(F)(F)F)cc2)C(=O)C(N)c2ccccc2OC)c1 (centres unmarked) [Example 38, 2-Amino-2-(2-methoxy-phenyl)-N-(3-methoxy-phenyl)-N-[2-(4-trifluoromethyl-phenyl)-ethyl]-acetamide] | 0.0577
11 | COc1ccccc1C(N)C(=O)N(CCc1ccc(C(F)(F)F)cc1)c1ccc2c(c1)OCO2 (centres unmarked) [Example 41] | 0.0505
12 | COc1ccc(N(CCc2ccc(C(F)(F)F)cc2)C(=O)C(N)c2ccccc2OC)cc1F (centres unmarked) [Example 42] | 0.0559

The next lines start with the values.

Row | Kb [µM] | Structure (SMILES)
13 | 0.0834 | CCOC(C(=O)N(CCc1ccc(C(F)(F)F)cc1)c1ccc(C)c(C)c1)c1ccccc1 (racemic) [Example 221, (R,S)—N-(3,4-Dimethyl-phenyl)-2-ethoxy-2-phenyl-N-[2-(4-trifluoromethyl-phenyl)-ethyl]-acetamide]
14 | 0.046 | COc1ccc(N(CCc2ccc(C(F)(F)F)cc2)C(=O)[C@H](N)c2ccccc2)cc1OC (single isomer, unassigned) [Example 174]
15 | 0.0162 | COc1ccc(N(CCc2ccc(C(F)(F)F)cc2)C(=O)C(N)c2ccccc2OC)cc1Cl (centres unmarked) [Example 43, 2-Amino-N-(3-chloro-4-methoxy-phenyl)-2-(2-methoxy-phenyl)-N-[2-(4-trifluoromethyl-phenyl)-ethyl]-acetamide]
16 | 0.0069 | COc1ccccc1C(N)C(=O)N(CCc1ccc(C(F)(F)F)cc1)c1ccc2c(c1)OC(F)(F)C(F)(F)O2 (centres unmarked) [Example 44, 2-Amino-2-(2-methoxy-phenyl)-N-(2,2,3,3-tetrafluoro-2,3-dihydro-benzo[1,4]dioxin-6-yl)-N-[2-(4-trifluoromethyl-phenyl)-ethyl]-acetamide]
17 | 0.0018 | COc1ccc(N(CCc2ccc(C(F)(F)F)cc2)C(=O)C(N)c2ccccc2)cc1OC (centres unmarked) [Example 45, 2-Amino-N-(3,4-dimethoxy-phenyl)-2-phenyl-N-[2-(4-trifluoromethyl-phenyl)-ethyl]-acetamide]
18 | 0.0305 | CNC(C(=O)N(CCc1ccc(C(F)(F)F)cc1)c1ccc(OC)c(OC)c1)c1ccccc1 (centres unmarked) [Example 53, N-(3,4-Dimethoxy-phenyl)-2-methylamino-2-phenyl-N-[2-(4-trifluoromethyl-phenyl)-ethyl]-acetamide]
19 | 0.0275 | NC(C(=O)N(CCc1ccc(C(F)(F)F)cc1)c1ccc2c(c1)OCO2)c1ccccc1 (centres unmarked) [Example 58, 2-Amino-N-benzo[1,3]dioxol-5-yl-2-phenyl-N-[2-(4-trifluoromethyl-phenyl)-ethyl]-acetamide]
20 | 0.0143 | COc1ccc(C)c(N(CCc2ccc(C(F)(F)F)cc2)C(=O)C(N)c2ccccc2)c1 (centres unmarked) [Example 59, 2-Amino-N-(5-methoxy-2-methyl-phenyl)-2-phenyl-N-[2-(4-trifluoromethyl-phenyl)-ethyl]-acetamide]
21 | 0.0231 | COc1cccc(N(CCc2ccc(C(F)(F)F)cc2)C(=O)C(N)c2ccccc2)c1 (centres unmarked) [Example 60, 2-Amino-N-(3-methoxy-phenyl)-2-phenyl-N-[2-(4-trifluoromethyl-phenyl)-ethyl]-acetamide]
22 | 0.0025 | COc1ccc(N(CCc2ccc(C(F)(F)F)cc2)C(=O)C(N)c2ccc(F)cc2)cc1OC (centres unmarked) [Example 61, 2-Amino-N-(3,4-dimethoxy-phenyl)-2-(4-fluoro-phenyl)-N-[2-(4-trifluoromethyl-phenyl)-ethyl]-acetamide]
23 | 0.0751 | COc1ccc(N(CCc2ccc(C(F)(F)F)cc2)C(=O)C(N)c2ccc(Cl)cc2)cc1OC (centres unmarked) [Example 62]
24 | 0.0664 | COc1ccc(N(CCc2ccc(C(F)(F)F)cc2)C(=O)C(N)c2cccc(Cl)c2)cc1OC (centres unmarked) [Example 63, 2-Amino-2-(3-chloro-phenyl)-N-(3,4-dimethoxy-phenyl)-N-[2-(4-trifluoromethyl-phenyl)-ethyl]-acetamide]
25 | 0.0383 | COc1ccc(N(CCc2ccc(C(F)(F)F)cc2)C(=O)C(N)c2ccccc2)cc1F (centres unmarked) [Example 64, 2-Amino-N-(3-fluoro-4-methoxy-phenyl)-2-phenyl-N-[2-(4-trifluoromethyl-phenyl)-ethyl]-acetamide]
26 | 0.0285 | COc1cc(N(CCc2ccc(C(F)(F)F)cc2)C(=O)C(N)c2ccccc2)ccc1Cl (centres unmarked) [Example 65, 2-Amino-N-(4-chloro-3-methoxy-phenyl)-2-phenyl-N-[2-(4-trifluoromethyl-phenyl)-ethyl]-acetamide]
27 | 0.013 | COc1ccc(N(CCc2ccc(C(F)(F)F)cc2)C(=O)C(N)c2ccccc2)cc1Cl (centres unmarked) [Example 66, 2-Amino-N-(3-chloro-4-methoxy-phenyl)-2-phenyl-N-[2-(4-trifluoromethyl-phenyl)-ethyl]-acetamide]
28 | 0.0117 | CCOc1ccc(N(CCc2ccc(C(F)(F)F)cc2)C(=O)C(N)c2ccccc2)cc1OCC (centres unmarked) [Example 68, 2-Amino-N-(3,4-diethoxy-phenyl)-2-phenyl-N-[2-(4-trifluoromethyl-phenyl)-ethyl]-acetamide]
29 | 0.0828 | Cc1ccc(N(CCc2ccc(C(F)(F)F)cc2)C(=O)C(N)c2ccccc2)cc1 (centres unmarked) [Example 69, 2-Amino-2-phenyl-N-p-tolyl-N-[2-(4-trifluoromethyl-phenyl)-ethyl]-acetamide]
